Results on 1 compound are retold here after patent publication US8809377B2, “Deubiquitinase inhibitors and methods for use of the same” (The Regents of the University of Michigan, priority 2010, dated 2014).

One experiment has as its system Mcl1. Nature of the experiment: Western blot of Mcl-1 levels. It counts as cell-based. On the procedure: (§1) Total cell lysates were prepared by boiling and sonicating cell pellets in 1× Laemmli reducing sample buffer. To prepare detergent soluble and insoluble fractions, cells were lysed in cold isotonic lysis buffer [10 mM Tris-HCl (pH 7.5), 0.5% Triton X-100, 150 mM NaCl along with Mini-Complete and PhosSTOP] for 15 min on ice and centrifuged 10 min at 20,000 RCF. The clarified supernatant was used as the detergent soluble cell fraction. The residual pellet was washed and extracted in Laemmli reducing sample buffer and briefly sonicated to derive the detergent insoluble fraction. Equal volumes of cellular lysate or equal protein amounts were electrophoresed on SDS-PAGE gels and transferred to nitrocellulose membranes (Whatmann, Dassel, Germany). Proteins were detected by immunoblotting.
Whole cell lysates were prepared by boiling and sonicating the cell pellets in 1× Laemmli reducing sample buffer. To prepare detergent soluble and insoluble fractions, cells were lysed in cold isotonic lysis buffer [10 mM Tris-HCl (pH 7.5), 0.5% Triton X-100, 150 mM NaCl along with Mini-Complete and PhosSTOP] for 15 min on ice and centrifuged 10 minutes at 20,000 RCF. The clarified supernatant was used as a source of the detergent soluble cell fraction. The detergent insoluble fraction was extracted by the sonication of residual pellet in equal volumes of boiling 1× Laemmli reducing sample buffer. […]
A general note: A western blot detects proteins with antibodies after separation by electrophoresis.

For experiment [1], the system named is CML and melanoma xenografts. Put plainly: Xenograft mouse models of CML and melanoma. It counts as in vivo.
The test system of a further experiment is Sindbis virus. Nature of the experiment: Sindbis virus plaque assay. The note with it: African green monkey epithelial cells (Vero), 5 μM, 30 min pre-treatment.
Another experiment has as its system pStat5. Put plainly: Western blot of pStat5. It counts as cell-based. The note with it: BV-173 cells, 5 μM, 1 or 2 hours. The procedure:
as §1
Cancer Res, 2010. 70(22): p. […] Blood, 2011. 117(11): p. […] Biochem Pharmacol, 2011. 82(4): p. […] Blood, 2007. 109(8): p. 3470-8.

Another experiment deals with T1, USP14 (Homo sapiens, UniProt P54578).
T1 construct: endogenous in cells; host or cells: Z138
Put plainly: HA-UbVs labeling of USP14. It counts as cell-based. The note with it: Z138 cells, 1, 5 or 10 μM, 1 hour. On the procedure: To assay for changes in activity of cellular deubiquitinase enzymes, Z138 and HEK293 cells were lysed in DUB buffer (50 mM Tris pH 7.4, 5 mM MgCl2, 150 mM NaCl) for 10 min at 4° C. The lysates were centrifuged at 20,000 RFC for 10 min and the supernatant was used for DUB labeling. Equal amounts of lysate were incubated with 500 ng of HA-UbVs for 1 hr at room temperature, followed by boiling in reducing sample buffer and resolving by SDS-PAGE. After protein transfer to nitrocellulose membranes, HA immunoblotting was used to detect DUB labeling.
Hemagglutinin-tagged ubiquitin vinyl methyl sulfone (HA-UbVs) acts as a DUB suicide substrate, forming a covalent adduct with active DUB enzymes. Specific cellular DUBs can be identified by anti-HA blotting, as previously shown in various cell types. Changes in specific DUB activities are measurable by monitoring HA-labeling in lysates from control and treated cells. Z138 cells were treated with WP1130 at 1, 5, or 10 μM or AG490 at 250 μM for 1 hours and lysed. 20 μg of clarified supernatant was incubated with 200 nM of HA-UbVS for 1 hr at 37° C. […] An in vitro analysis using cell lysates was performed to investigate direct DUB inhibition by WP1130. Briefly, untreated Z138 cell lysates were incubated with 5 μM WP1130 or vehicle alone for one hour at 37° C., followed by labeling with HA-UbVs.

Experiment [2] deals with Encephalomyocarditis virus. Nature of the experiment: Encephalomyocarditis virus plaque assay. The note with it: 5 μM, 30 min pre-treatment, listed as HWP1130.
The next experiment relates to Hsp70. Nature of the experiment: Hsp70 immunoblot. It counts as cell-based. As to conditions: CML cells.

T1 sequence (P54578 whole entry): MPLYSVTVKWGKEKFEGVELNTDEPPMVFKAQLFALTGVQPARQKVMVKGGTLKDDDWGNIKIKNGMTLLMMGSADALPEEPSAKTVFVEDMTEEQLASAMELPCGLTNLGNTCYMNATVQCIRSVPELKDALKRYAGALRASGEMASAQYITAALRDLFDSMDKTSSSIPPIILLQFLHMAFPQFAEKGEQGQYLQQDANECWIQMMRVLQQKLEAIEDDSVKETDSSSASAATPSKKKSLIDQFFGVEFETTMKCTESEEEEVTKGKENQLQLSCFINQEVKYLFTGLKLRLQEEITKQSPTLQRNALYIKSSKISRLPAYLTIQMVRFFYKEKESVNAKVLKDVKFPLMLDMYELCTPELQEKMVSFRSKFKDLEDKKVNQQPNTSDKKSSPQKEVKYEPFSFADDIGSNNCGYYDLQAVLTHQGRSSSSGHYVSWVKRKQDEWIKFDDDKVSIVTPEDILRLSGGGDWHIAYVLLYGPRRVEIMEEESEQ

As for `CCC[C@H](NC(=O)/C(C#N)=C/c1cccc(Br)n1)c1ccccc1` [WP1130], the MCL-1 levels result with Mcl1 (Z138 cells) is reported as “rapid decline”. Also, in the experiment on Mcl1 (imatinib sensitive and resistant CML cells), the Mcl-1 levels entry is “reduced”. For the same compound, the “tumor growth in vivo” value in experiment [1] is given as “effectively suppresses tumor growth”. Moreover, the “Log inhibition by plaque assay” value was 2-2.5 log with Sindbis virus, 2 log with Sindbis virus (listed as HWP1130) and 2 log in experiment [2]. Besides, in the experiment with pStat5, the “phosphorylation of Stat5” value is recorded as “loss of phosphorylation of Stat5”. Further, the “HA-UbVS labeling of USP14” value at USP14 was “dose-dependent and time reduction in the labeling”. Further, in the experiment with Hsp70, the Hsp70 protein levels result was “increased”.
